Measured values published in patent US20260297092A1, “PYRAZOLOPYRIMIDINE DERIVATIVES AS INHIBITORS OF NLRP3” (Takeda Pharmaceutical Company Limited, priority 2023, published 2026).

The compounds below were run on NLRP3 inflammasome (IL-1β production in THP-1 cells) (assay: IL-1β TR-FRET Assay (percentage of inhibition at 300 nM, 6 μM or 10 μM)). Settings: Homo sapiens, THP-1, 300 nM, LPS priming, ATP activation, read-out: IL-1β inhibitory rate at 300 nM (%).
Format: cell-based, human
Method: The biological activity of the compound of Formula 1 with respect to NLRP3 was determined using the following in vitro method.
IL-1β TR-FRET Assay (reported as percentage of inhibition at 300 nM, 6 μM or 10 μM)
Monocytic THP-1 cells (ATCC: TIB-202) were maintained in accordance with the provider's instructions in RPMI media (Life Technologies, Cat #A10491-01); RPMI was supplemented with 10% heat inactivated fetal bovine serum (Corning, Cat #35-010-CV). The cells were differentiated into macrophages by the addition of 25 ng/mL IFN-γ (PeproTech, Cat #AF-300-02-100UG) for 24 hours at 37° C./5% CO2. Media was exchanged with fresh media with no FBS, and the cells were treated with 50 ng/mL LPS (priming step) (LPS-EK: Invivogen, Cat #tlrl-peklps). The cells were plated at 20,000 cells per well in 384-well flat-bottom cell culture plates (FALCON, Cat #353962) and were incubated for 24 hours at 37° C./5% CO2. Compounds were serially diluted (half log or 5-fold dilutions) with DMSO and were finally diluted with Media with no FBS. The compounds were added to the cells in 384-well plates (added in 1:3) and then the plates were incubated for 30 minutes at 37° C./5% CO2. The NLRP3 inflammasome was activated with the addition of 20 mM ATP (Sigma Cat #A3377-25G) and the cells were incubated for 2 hours at 37° C./5% CO2. At the end of the incubation period, 30 μL supernatant was transferred to another 384-well plate and mixed on a plate shaker for 1 minute. The supernatant was mixed with HTRF Antibody (Human IL1 beta kit, Cisbio, 62HIL1BPEH) in assay plates (Greiner Bio-One, Cat #784075) and the assay plates were incubated in shading box at room temperature for 16-24 hours. HTRF signal was measured by EnVision (Perkinelmer) in accordance with the manufacturer's instructions.
The percentage of inhibition at 300 nM, 6 μM or 10 μM in the IL-1βTR-FRET assay was calculated by the following formula: Percentage of inhibition=[1−(HTRF signaltest−HTRF signalLow)/(HTRF signalHigh−HTRF signalLow)]*100, where HTRF signaltest is the HTRF signal in the well to which test compound is added, HTRF signalLow is the HTRF signal in the well to which 3 μM MCC-950 is added, and the HTRF signalHigh is the HTRF signal in the well to which DMSO is added.

**Q.** For Cc1cc(Br)cc(C)c1-n1cc2c(=O)[nH]c([C@H]3CC3(F)F)nc2n1 [Example 189, 2-(4-bromo-2,6-dimethylphenyl)-6-(2,2-difluorocyclopropyl)-2,5-dihydro-4H-pyrazolo[3,4-d]pyrimidin-4-one], which inhibition at 0.3 µM is on record?
**A.** Its inhibition at 0.3 µM is 99%.

**Q.** Which inhibition at 0.3 µM does the source give for CCOc1nc2nn(-c3c(C)cc(C)cc3F)cc2c(=O)[nH]1 [Example 78, 6-ethoxy-2-(2-fluoro-4,6-dimethylphenyl)-2,5-dihydro-4H-pyrazolo[3,4-d]pyrimidin-4-one] here?
**A.** Its inhibition at 0.3 µM is 98%.

**Q.** How did the inhibition at 0.3 µM turn out when CCOc1nc2nn(-c3ccc(C4(F)CC4)cc3F)cc2c(=O)[nH]1 [Example 183, 6-ethoxy-2-[2-fluoro-4-(1-fluorocyclopropyl)phenyl]-2,5-dihydro-4H-pyrazolo[3,4-d]pyrimidin-4-one] was run?
**A.** The inhibition at 0.3 µM was 96%.

**Q.** With Cc1cc(C2CC2)cc(C)c1-n1cc2c(=O)[nH]c([C@@H]3CCOC3)nc2n1 [Example 201, 2-(4-cyclopropyl-2,6-dimethylphenyl)-6-(oxolan-3-yl)-2,5-dihydro-4H-pyrazolo [3,4-d]pyrimidin-4-one] as the compound, how does the inhibition at 0.3 µM read?
**A.** The inhibition at 0.3 µM was 99%.

**Q.** With Cc1cc(C2CC2)cc(C)c1-n1cc2c(=O)[nH]c(C(C)(C)O)nc2n1 [Example 172, 2-(4-cyclopropyl-2,6-dimethylphenyl)-6-(2-hydroxypropan-2-yl)-2,5-dihydro-4H-pyrazolo[3,4-d]pyrimidin-4-one] as the compound, how does the inhibition at 0.3 µM read?
**A.** Its inhibition at 0.3 µM is 61%.

**Q.** How did the inhibition at 0.3 µM turn out when Cc1nc2nn(-c3c(C)cc(C4CC4)cc3C)cc2c(=O)[nH]1 [Example 180, 2-(4-cyclopropyl-2,6-dimethylphenyl)-6-methyl-2,5-dihydro-4H-pyrazolo[3,4-d]pyrimidin-4-one] was run?
**A.** The inhibition at 0.3 µM was 99%.

**Q.** For CCOc1nc2nn(-c3c(F)cc(OC)cc3C(F)F)cc2c(=O)[nH]1 [Example 149, 2-[2-(difluoromethyl)-6-fluoro-4-methoxyphenyl]-6-ethoxy-2,5-dihydro-4H-pyrazolo[3,4-d]pyrimidin-4-one], which inhibition at 0.3 µM is on record?
**A.** The inhibition at 0.3 µM was 99%.

**Q.** With CCOc1nc2nn(-c3c(F)cc(C4(F)CC4)cc3Br)cc2c(=O)[nH]1 [Example 178, 2-[2-bromo-6-fluoro-4-(1-fluorocyclopropyl)phenyl]-6-ethoxy-2,5-dihydro-4H-pyrazolo[3,4-d]pyrimidin-4-one] as the compound, how does the inhibition at 0.3 µM read?
**A.** The inhibition at 0.3 µM was 101%.

**Q.** Which inhibition at 0.3 µM does the source give for Cc1nc2nn(-c3c(C)cc(Br)cc3C)cc2c(=O)[nH]1 [Example 187, 2-(4-bromo-2,6-dimethylphenyl)-6-methyl-2,5-dihydro-4H-pyrazolo[3,4-d]pyrimidin-4-one] here?
**A.** Its inhibition at 0.3 µM is 97%.

Same assay, conditions: Homo sapiens, THP-1, 6 μM, LPS priming, ATP activation, read-out: IL-1β inhibitory rate at 6 μM (%)

**Q.** Cc1c(Br)c(Br)cc(C(F)F)c1-n1cc2c(=O)[nH]c(COC(F)F)nc2n1 [Example 280, 2-[3,4-dibromo-6-(difluoromethyl)-2-methylphenyl]-6-[(difluoromethoxy)methyl]-2,5-dihydro-4H-pyrazolo[3,4-d]pyrimidin-4-one] was tested. Which inhibition at 6 µM did it give?
**A.** Its inhibition at 6 µM is 99%.

**Q.** For Cc1cc(C2CC2)cc(C)c1-n1cc2c(=O)[nH]c(-c3cc4n(n3)CCO4)nc2n1 [Example 270, 2-(4-cyclopropyl-2,6-dimethylphenyl)-6-(2,3-dihydropyrazolo[5,1-b][1,3]oxazol-6-yl)-2,5-dihydro-4H-pyrazolo[3,4-d]pyrimidin-4-one], which inhibition at 6 µM is on record?
**A.** Its inhibition at 6 µM is 98%.

**Q.** With Cc1cc(C2CC2)cc(C)c1-n1cc2c(=O)[nH]c(C3=CCOCC3)nc2n1 [Example 307, 2-(4-cyclopropyl-2,6-dimethylphenyl)-6-(3,6-dihydro-2H-pyran-4-yl)-2,5-dihydro-4H-pyrazolo[3,4-d]pyrimidin-4-one] as the compound, how does the inhibition at 6 µM read?
**A.** Its inhibition at 6 µM is 108%.

**Q.** How did the inhibition at 6 µM turn out when CCOc1nc2nn(-c3c(Br)cc(Br)cc3C(F)F)cc2c(=O)[nH]1 [Example 251, 2-[2,4-dibromo-6-(difluoromethyl)phenyl]-6-ethoxy-2,5-dihydro-4H-pyrazolo[3,4-d]pyrimidin-4-one] was run?
**A.** Its inhibition at 6 µM is 105%.

**Q.** Which inhibition at 6 µM does the source give for Cc1cc(C2CC2)cc(C)c1-n1cc2c(=O)[nH]c(CO)nc2n1 [Example 304, 2-(4-cyclopropyl-2,6-dimethylphenyl)-6-(hydroxymethyl)-2,5-dihydro-4H-pyrazolo[3,4-d]pyrimidin-4-one] here?
**A.** Its inhibition at 6 µM is 103%.

**Q.** COc1nc2nn(-c3c(F)cc(C4CC4)cc3CC(F)F)cc2c(=O)[nH]1 [Example 309, 2-[4-cyclopropyl-2-(2,2-difluoroethyl)-6-fluorophenyl]-6-methoxy-2,5-dihydro-4H-pyrazolo [3,4-d]pyrimidin-4-one] was tested. Which inhibition at 6 µM did it give?
**A.** Its inhibition at 6 µM is 99%.

**Q.** How did the inhibition at 6 µM turn out when CCOCc1nc2nn(-c3c(F)cc(C4CC4)cc3C(F)F)cc2c(=O)[nH]1 [Example 314, 2-[4-cyclopropyl-2-(difluoromethyl)-6-fluorophenyl]-6-(ethoxymethyl)-2,5-dihydro-4H-pyrazolo[3,4-d]pyrimidin-4-one] was run?
**A.** Its inhibition at 6 µM is 105%.

**Q.** Which inhibition at 6 µM does the source give for Cc1cc(C2CC2)cc(C)c1-n1cc2c(=O)[nH]c([C@H]3CCCCO3)nc2n1 [Example 233, 2-(4-cyclopropyl-2,6-dimethylphenyl)-6-(oxan-2-yl)-2,5-dihydro-4H-pyrazolo[3,4-d]pyrimidin-4-one] here?
**A.** The inhibition at 6 µM was 93%.

**Q.** How did the inhibition at 6 µM turn out when Cc1cc(C2CC2)cc(C)c1-n1cc2c(=O)[nH]c(C3(C)COC3)nc2n1 [Example 315, 2-(4-cyclopropyl-2,6-dimethylphenyl)-6-(3-methyloxetan-3-yl)-2,5-dihydro-4H-pyrazolo [3,4-d]pyrimidin-4-one] was run?
**A.** Its inhibition at 6 µM is 101%.

**Q.** For CCCc1nc2nn(-c3c(C)cc(C4CC4)cc3C)cc2c(=O)[nH]1 [Example 240, 2-(4-cyclopropyl-2,6-dimethylphenyl)-6-propyl-2,5-dihydro-4H-pyrazolo[3,4-d]pyrimidin-4-one], which inhibition at 6 µM is on record?
**A.** Its inhibition at 6 µM is 101%.

**Q.** CO[C@H]1C[C@@H](Oc2nc3nn(-c4ccc(C)cc4C)cc3c(=O)[nH]2)C1 [Example 243, 2-(2,4-dimethylphenyl)-6-{[(1s,3s)-3-methoxycyclobutyl]oxy}-2,5-dihydro-4H-pyrazolo[3,4-d]pyrimidin-4-one] was tested. Which inhibition at 6 µM did it give?
**A.** Its inhibition at 6 µM is 100%.

**Q.** O=c1[nH]c(COC(F)F)nc2nn(-c3ccc(Br)cc3C(F)F)cc12 [Example 267, 2-[4-bromo-2-(difluoromethyl)phenyl]-6-[(difluoromethoxy)methyl]-2,5-dihydro-4H-pyrazolo[3,4-d]pyrimidin-4-one] was tested. Which inhibition at 6 µM did it give?
**A.** The inhibition at 6 µM was 101%.

**Q.** Which inhibition at 6 µM does the source give for Cc1cc(C2CC2)cc(Cl)c1-n1cc2c(=O)[nH]c(COC(F)F)nc2n1 [Example 294, 2-(2-chloro-4-cyclopropyl-6-methylphenyl)-6-[(difluoromethoxy)methyl]-2,5-dihydro-4H-pyrazolo[3,4-d]pyrimidin-4-one] here?
**A.** The inhibition at 6 µM was 106%.

**Q.** How did the inhibition at 6 µM turn out when Cc1cc(C2CC2)cc(C)c1-n1cc2c(=O)[nH]c(CCO)nc2n1 [Example 276, 2-(4-cyclopropyl-2,6-dimethylphenyl)-6-(2-hydroxyethyl)-2,5-dihydro-4H-pyrazolo[3,4-d]pyrimidin-4-one] was run?
**A.** The inhibition at 6 µM was 99%.

**Q.** For CCOC(Cc1nc2nn(-c3c(C)cc(C4CC4)cc3C)cc2c(=O)[nH]1)OCC [Example 234, 2-(4-cyclopropyl-2,6-dimethylphenyl)-6-(2,2-diethoxyethyl)-2,5-dihydro-4H-pyrazolo[3,4-d]pyrimidin-4-one], which inhibition at 6 µM is on record?
**A.** Its inhibition at 6 µM is 90%.

**Q.** With Cc1cc(C2CC2)cc(C)c1-n1cc2c(=O)[nH]c(COC3COC3)nc2n1 [Example 236, 2-(4-cyclopropyl-2,6-dimethylphenyl)-6-{[(oxetan-3-yl)oxy]methyl}-2,5-dihydro-4H-pyrazolo[3,4-d]pyrimidin-4-one] as the compound, how does the inhibition at 6 µM read?
**A.** Its inhibition at 6 µM is 93%.

Same assay, conditions: Homo sapiens, THP-1, 10 μM, LPS priming, ATP activation, read-out: IL-1β inhibitory rate at 10 μM (%)

**Q.** Cc1cc(C2CC2)cc(C(F)F)c1-n1cc2c(=O)[nH]c([C@H]3COCCO3)nc2n1 [Example 325, 2-[4-cyclopropyl-2-(difluoromethyl)-6-methylphenyl]-6-[(2R)-1,4-dioxan-2-yl]-2,5-dihydro-4H-pyrazolo[3,4-d]pyrimidin-4-one or 2-[4-cyclopropyl-2-(difluoromethyl)-6-methylphenyl]-6-[(2S)-1,4-dioxan-2-yl]-2,5-dihydro-4H-pyrazolo[3,4-d]pyrimidin-4-one] was tested. Which inhibition at 10 µM did it give?
**A.** The inhibition at 10 µM was 100%.

**Q.** Which inhibition at 10 µM does the source give for Cc1cc(C2CC2)cc(C(F)F)c1-n1cc2c(=O)[nH]c([C@@H]3COCCO3)nc2n1 [Example 326, 2-[4-cyclopropyl-2-(difluoromethyl)-6-methylphenyl]-6-[(2S)-1,4-dioxan-2-yl]-2,5-dihydro-4H-pyrazolo[3,4-d]pyrimidin-4-one or 2-[4-cyclopropyl-2-(difluoromethyl)-6-methylphenyl]-6-[(2R)-1,4-dioxan-2-yl]-2,5-dihydro-4H-pyrazolo[3,4-d]pyrimidin-4-one] here?
**A.** Its inhibition at 10 µM is 111%.
